Columns and labels:
Experiment in all cases: selective drug sensitivity score (sDSS, relative to normal bone marrow) (sDSS (score)); higher = more potent and effective on the cell line relative to normal bone marrow cells
Conditions in all cases: 72 h
[1] = test system: 380
[2] = test system: ALL-SIL
[3] = test system: CCRF-CEM
[4] = test system: CCRF-HSB2
[5] = test system: COG-LL-394h
[6] = test system: DND-41
[7] = test system: HAL-01
[8] = test system: KARPAS-45
[9] = test system: KASUMI-10
[10] = test system: KOPN-8
[11] = test system: LC4-1
[12] = test system: MHH-CALL-2
[13] = test system: MHH-CALL-3
[14] = test system: MHH-CALL-4
[15] = test system: NALL-1
[16] = test system: P12-ICHIKAWA
[17] = test system: P30-OHKUBO
[18] = test system: PF-382
[19] = test system: REH
[20] = test system: SEM cells
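Further: ALL cell lines in 384-well plates, five doses spanning 10,000-fold, each plate scaled between vehicle and 100 µmol/L benzalkonium chloride controls, sDSS an adapted area-under-curve metric.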

| SMILES | selective drug sensitivity score [1] | selective drug sensitivity score [2] | selective drug sensitivity score [3] | selective drug sensitivity score [4] | selective drug sensitivity score [5] | selective drug sensitivity score [6] | selective drug sensitivity score [7] | selective drug sensitivity score [8] | selective drug sensitivity score [9] | selective drug sensitivity score [10] | selective drug sensitivity score [11] | selective drug sensitivity score [12] | selective drug sensitivity score [13] | selective drug sensitivity score [14] | selective drug sensitivity score [15] | selective drug sensitivity score [16] | selective drug sensitivity score [17] | selective drug sensitivity score [18] | selective drug sensitivity score [19] | selective drug sensitivity score [20] |
| --- | --- | --- | --- | --- | --- | --- | --- | --- | --- | --- | --- | --- | --- | --- | --- | --- | --- | --- | --- | --- |
| Cc1cc2c(C(=O)NC[C@H](C)c3ccccc3)c(O)c(O)cc2c(O)c1-c1c(C)cc2c(C(=O)NC[C@H](C)c3ccccc3)c(O)c(O)cc2c1O [Sabutoclax] (top concentration 25000 nM) | 14.1 | 12.2 | 13.8 | 16.3 | 15.7 | 10.6 | -7.62 | 16.2 | 5.18 | 17.9 | 13.8 | -7.82 | -8.12 | -7.22 | -8.22 | 13.7 | 15.9 | 11.1 | 17.5 | 10.4 |
| NC(=O)c1cccc(-c2cccc(OC(=O)NC3CCCCC3)c2)c1 [URB597] (top concentration 1000 nM) | 2.44 | -0.46 | -0.46 | -0.46 | -0.46 | -0.26 | 0.64 | -0.46 | -0.46 | -0.36 | 0.44 | 0.54 | -0.46 | -0.46 | -0.46 | -0.46 | -0.46 | -0.46 | -0.46 | -0.46 |
| C[C@@H](Oc1cc(-c2cnn(C3CCNCC3)c2)cnc1N)c1c(Cl)ccc(F)c1Cl [Crizotinib] (top concentration 1000 nM) | -0.54 | 5.46 | -0.54 | 4.26 | 0.86 | -0.54 | -0.54 | -0.24 | -0.54 | -0.54 | -0.54 | -0.54 | -0.54 | -0.54 | -0.54 | -0.54 | -0.54 | -0.54 | -0.54 | -0.54 |
| COC(=O)c1ccc([C@H]2c3[nH]c4ccccc4c3C[C@H](C(=O)OC)N2C(=O)CCl)cc1 [RSL3] (top concentration 10000 nM) | 14.2 | 0 | 0.2 | 0 | 0 | 0 | 3.5 | 0 | 0.3 | 0 | 0 | 0.1 | 0.7 | 0 | 5.2 | 0 | 2.7 | 0.9 | 3.1 | 0 |
| CCN(CC)CCCC(C)Nc1ccnc2cc(Cl)ccc12 (stereo not given) [Chloroquine] (top concentration 100000 nM) | -4.94 | -0.74 | -2.94 | -2.34 | -4.54 | -0.94 | 0.36 | 1.26 | -4.24 | -1.14 | -3.74 | 1.06 | -6.04 | -1.44 | -8.84 | -3.94 | 0.26 | -2.34 | 0.96 | -0.74 |
| CCC(C)(C)C(=O)O[C@H]1C[C@@H](C)C=C2C=C[C@H](C)[C@H](CC[C@@H]3C[C@@H](O)CC(=O)O3)[C@H]21 [Simvastatin] (top concentration 10000 nM) | 4.88 | 2.38 | 2.38 | 0.08 | -0.72 | -0.72 | 3.08 | 2.58 | -0.72 | 4.48 | 2.18 | 9.58 | 6.08 | 2.58 | 3.48 | 2.18 | 1.28 | 0.08 | 0.88 | 1.58 |
| C[C@]12CC[C@H](O)CC1=CC[C@@H]1[C@@H]2CC[C@]2(C)C(c3cccnc3)=CC[C@@H]12 [Abiraterone] (top concentration 5000 nM) | 0.58 | -0.12 | -0.12 | -0.12 | -0.12 | -0.12 | -0.12 | -0.12 | -0.12 | 1.78 | 1.18 | 0.88 | -0.12 | 0.28 | 3.08 | -0.12 | 1.48 | -0.12 | -0.12 | -0.12 |
| CCc1cc2c(cc1N1CCC(N3CCOCC3)CC1)C(C)(C)c1[nH]c3cc(C#N)ccc3c1C2=O [Alectinib] (top concentration 1000 nM) | 0.38 | -0.22 | 0.18 | -0.22 | 2.58 | 0.08 | 1.28 | 1.28 | 1.68 | 1.38 | 3.18 | -0.12 | -0.22 | -0.12 | -0.22 | -0.22 | 1.68 | -0.22 | -0.02 | 0.58 |
| COc1cc(NS(C)(=O)=O)ccc1Nc1c2ccccc2nc2ccccc12 [Amsacrine] (top concentration 10000 nM) | 23.2 | 10.2 | 15.1 | 22.5 | 8.26 | 4.16 | 14.1 | 1.76 | 11 | 18.3 | 15.5 | 10.5 | 23.5 | 13.2 | 5.66 | 13.5 | 13 | 10.9 | 19.1 | 12.8 |

From the supplement of paper PMC8967900
